# Literature values in patent US6532437B1, “Crystalline frap complex” (Cornell Research Foundation, Inc., priority 1996, dated 2003).
# Columns and labels:
# [1] = test system: spontaneous SLE in MRL/lpr-mice
# [2] = test system: Chronic GVHD in BDF1 mice; details: BDF1 mice given DBA/2 spleen:lymph node cells
Structure (SMILES),effect on course of disease [1],activity in CGVHD model [2]
Cc1oncc1C(=O)Nc1ccc(C(F)(F)F)cc1 [leflunomide],can prevent and reverse the course of disease,active
C[C@]12C=CC(=O)C=C1CC[C@@H]1[C@@H]2[C@@H](O)C[C@@]2(C)[C@H]1CC[C@]2(O)C(=O)CO [prednisolone],,active
O=P1(N(CCCl)CCCl)NCCCO1 (centres unmarked) [cyclophosphamide],can prevent and reverse the course of disease,active
